Where a name gives a salt, the structure may show the parent alone.

The target of the assay is T1, NLRP3 (Homo sapiens, UniProt Q96P20).
T1 construct: Seed THP-1 cells (25,000 cells/well) containing 1.0 μg/ml LPS in 40 μl of RPMI medium; host or cells: THP-1 cells
T1 sequence (Q96P20 whole entry): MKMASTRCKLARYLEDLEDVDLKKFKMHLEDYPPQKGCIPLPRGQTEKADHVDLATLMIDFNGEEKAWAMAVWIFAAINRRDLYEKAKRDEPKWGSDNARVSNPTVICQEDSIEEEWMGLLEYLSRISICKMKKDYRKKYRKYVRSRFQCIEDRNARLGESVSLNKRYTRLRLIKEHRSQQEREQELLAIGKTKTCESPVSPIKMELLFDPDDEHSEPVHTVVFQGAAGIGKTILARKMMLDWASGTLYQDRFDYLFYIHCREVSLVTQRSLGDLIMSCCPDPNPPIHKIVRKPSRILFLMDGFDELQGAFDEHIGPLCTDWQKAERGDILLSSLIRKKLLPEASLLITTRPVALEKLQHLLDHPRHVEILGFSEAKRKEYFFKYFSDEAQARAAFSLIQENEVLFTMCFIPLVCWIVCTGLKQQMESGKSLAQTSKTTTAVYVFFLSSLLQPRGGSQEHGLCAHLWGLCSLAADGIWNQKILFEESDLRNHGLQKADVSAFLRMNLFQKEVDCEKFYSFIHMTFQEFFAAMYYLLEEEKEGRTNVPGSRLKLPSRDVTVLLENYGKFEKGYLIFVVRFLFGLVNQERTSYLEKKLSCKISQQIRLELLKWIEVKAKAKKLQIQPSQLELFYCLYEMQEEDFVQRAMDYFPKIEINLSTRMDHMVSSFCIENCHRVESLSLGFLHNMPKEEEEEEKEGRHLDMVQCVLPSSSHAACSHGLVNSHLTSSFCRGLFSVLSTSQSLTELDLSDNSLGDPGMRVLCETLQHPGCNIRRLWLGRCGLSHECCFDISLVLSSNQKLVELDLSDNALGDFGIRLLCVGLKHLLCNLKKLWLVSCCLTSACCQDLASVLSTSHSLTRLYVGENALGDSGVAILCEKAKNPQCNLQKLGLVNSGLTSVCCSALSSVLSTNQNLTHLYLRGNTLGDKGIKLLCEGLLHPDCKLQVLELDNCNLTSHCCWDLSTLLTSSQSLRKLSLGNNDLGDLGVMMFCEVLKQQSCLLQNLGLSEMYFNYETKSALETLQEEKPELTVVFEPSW
The assay can be described thus: THP-1 cells pyroptosis assay. The note with it: LPS 1 μg/ml, compound 3 hrs, nigericin 5 μM 1 hr, resazurin readout. The class given is cell-based. The method, then: THP-1 cells (ATCC #TIB-202) were grown in RPMI containing L-glutamine (Gibco #11835) supplemented with 1 mM sodium pyruvate (Sigma #S8636) and penicillin (100 units/ml)/streptomycin (0.1 mg/ml) (Sigma #P4333) in 10% Fetal Bovine Serum (FBS) (Sigma #F0804). The cells were routinely passaged and grown to confluency (10^6 cells/ml). On the day of the experiment, THP-1 cells were harvested and resuspended into RPMI medium (without FBS). The cells were then counted and viability (>90%) checked by Trypan blue (Sigma #T8154). Appropriate dilutions were made to give a concentration of 625,000 cells/ml. To this diluted cell solution was added LPS (Sigma #L4524) to give a 1 μg/ml Final Assay Concentration (FAC). 40 μl of the final preparation was aliquoted into each well of a 96-well plate. The plate thus prepared was used for compound screening.
The following method step-by-step assay was followed for compound screening. • 1. Seed THP-1 cells (25,000 cells/well) containing 1.0 μg/ml LPS in 40 μl of RPMI medium (without FBS) in 96-well, black walled, clear bottom cell culture plates coated with poly-D-lysine (VWR #734-0317) • 2. Add 5 μl compound (8 points half-log dilution, with 10 μM top dose) or vehicle (DMSO 0.1% FAC) to the appropriate wells • 3. Incubate for 3 hrs at 37° C., 5% CO2 • 4. Add 5 μl nigericin (Sigma #N7143) (FAC 5 μM) to all wells • 5. Incubate for 1 hr at 37° C., 5% CO2 • 6. At the end of the incubation period, spin plates at 300×g for 3 mins and remove supernatant • 7. Then add 50 μl of resazurin (Sigma #R7017)(FAC 100 μM resazurin in RPMI medium without FBS) and incubate plates for a further 1-2 hrs at 37° C. and 5% CO2 • 8. Plates were read in an Envision reader at Ex 560 nm and Em 590 nm • 9. IC50 data is fitted to a non-linear regression equation (log inhibitor vs response-variable slope 4-parameters) 96-well Plate Map
Background: Resazurin is reduced to fluorescent resorufin, in cell work by metabolically active cells.
Usually IC50 stands for the point on the concentration scale where inhibition reaches its midpoint. Lower therefore signals greater potency in that assay. For `COc1cc(-c2cc(F)cc(C(C)C)c2CC(=O)NS(=O)(=O)c2ccc(=O)n(C)c2)ccn1` [Example 1, 2-(4-Fluoro-2-isopropyl-6-(2-methoxypyridin-4-yl)phenyl)-N-((1-methyl-6-oxo-,6-dihydropyridin-3-yl)sulfonyl)acetamide, potassium salt], the IC50 was at most 10 µM.
Consider `COc1cc(-c2cc(F)cc(C(C)C)c2CC(=O)NS(=O)(=O)c2ccc(=O)n(C(C)C)c2)ccn1` [Example 2, 2-(4-Fluoro-2-isopropyl-6-(2-methoxypyridin-4-yl)phenyl)-N-((1-isopropyl-6-oxo-,6-dihydropyridin-3-yl)sulfonyl)acetamide, potassium salt], for which the IC50 was at most 5 µM.
Turning to `COc1cc(-c2cc(F)cc(C(C)C)c2CC(=O)NS(=O)(=O)c2cn(C)c(=O)n(C)c2=O)ccn1` [Example 3, N-((1,3-Dimethyl-2,4-dioxo-1,2,3,4-tetrahydropyrimidin-5-yl)sulfonyl)-2-(4-fluoro-2-isopropyl-6-(2-methoxypyridin-4-yl)phenyl)acetamide], the IC50 is at most 1 µM.
`COc1cc(-c2cc(F)cc(C(C)C)c2CC(=O)NS(=O)(=O)c2ccc(Cl)cc2F)ccn1` [Example 4] registered an IC50 of at most 1 µM.
For `COc1cc(-c2cc(F)cc(C(C)C)c2CC(=O)NS(=O)(=O)c2cccc(Cl)c2)ccn1` [Example 5] the value was at most 1 µM; for `COc1cc(-c2cc(F)cc(C(C)C)c2CC(=O)NS(=O)(=O)c2cccc(Cl)c2C)ccn1` [Example 6], at most 10 µM.
Turning to `COc1cc(-c2cc(F)cc(C(C)C)c2CC(=O)NS(=O)(=O)c2ccccc2Cl)ccn1` [Example 7], the IC50 is at most 5 µM.
The same measure for `COc1cc(-c2cc(F)cc(C(C)C)c2CC(=O)NS(=O)(=O)c2sccc2C(C)(C)O)ccn1` [Example 8]: at most 10 µM; for `COC(=O)c1ccc(S(=O)(=O)NC(=O)Cc2c(-c3ccnc(OC)c3)cc(F)cc2C(C)C)cc1Cl` [Example 9]: at most 5 µM; for `CC(C)c1cc(F)cc(-c2ccc(Cl)nc2)c1CC(=O)NS(=O)(=O)c1cc(C(C)(C)O)cs1` [Example 10]: at most 5 µM.
For `COc1cc(-c2cc(F)cc(C(C)C)c2CC(=O)NS(=O)(=O)c2ccc(Cl)c(Cl)c2)ccn1` [Example 11] the value was at most 1 µM; for `COc1cc(-c2cc(F)cc(C(C)C)c2CC(=O)NS(=O)(=O)c2ccc(Cl)cc2OC)ccn1` [Example 12], at most 1 µM.
The molecule `COc1cc(-c2cc(F)cc(C(C)C)c2CC(=O)NS(=O)(=O)c2ccc(Cl)cc2Cl)ccn1` [Example 13] registered an IC50 of at most 1 µM.
The molecule `COc1cc(-c2cc(F)cc(C(C)C)c2CC(=O)NS(=O)(=O)c2ccc(N(C)C)cc2C)ccn1` [Example 14] came in with an IC50 of at most 0.5 µM.
The same measure for `COc1cc(-c2cc(F)cc(C(C)C)c2CC(=O)NS(=O)(=O)c2ccc(C(=O)N(C)C)cc2C)ccn1` [Example 15]: at most 5 µM; for `CC(C)c1cc(F)cc(-c2ccncc2)c1CC(=O)NS(=O)(=O)c1ccc(Cl)cc1` [Example 16]: at most 5 µM; for `CC(C)c1cc(F)cc(-c2cccnc2)c1CC(=O)NS(=O)(=O)c1ccc(Cl)cc1` [Example 17]: at most 5 µM.
The same measure for `COc1cc(-c2cc(F)cc(C(C)C)c2CC(=O)NS(=O)(=O)c2ccc(B(O)O)cc2)ccn1` [Example 18]: at most 10 µM.
For `COc1cc(-c2cc(F)cc(C(C)C)c2CC(=O)NS(=O)(=O)c2ccc(Br)cc2)ccn1` [Example 19], the IC50 was at most 1 µM.
The same measure for `COc1cc(-c2ccc3c(c2CC(=O)NS(=O)(=O)c2cc(C(C)(C)O)cs2)CCC3)ccn1` [Example 20, N-((4-(2-Hydroxypropan-2-yl)thiophen-2-yl)sulfonyl)-2-(5-(2-methoxypyridin-4-yl)-2,3-dihydro-1H-inden-4-yl)acetamide]: at most 1 µM; for `CC(C)n1ccc(S(=O)(=O)NC(=O)Cc2c(-c3ccnc(C#N)c3)ccc3c2CCC3)n1` [Example 21, 2-(5-(2-Cyanopyridin-4-yl)-2,3-dihydro-H-inden-4-yl)-N-((1-isopropyl-1H-pyrazol-3-yl)sulfonyl)acetamide]: at most 10 µM; for `CC(C)(O)c1csc(S(=O)(=O)NC(=O)Cc2c(-c3ccnc(C#N)c3)ccc3c2CCC3)c1` [Example 22, 2-(5-(2-Cyanopyridin-4-yl)-2,3-dihydro-1H-inden-4-yl)-N-((4-(2-hydroxypropan-2-yl)thiophen-2-yl)sulfonyl)acetamide]: at most 5 µM.
Regarding `COc1cc(-c2cc(F)cc(C(C)C)c2CC(=O)NS(=O)(=O)c2ccn(C(C)C)n2)ccn1` [Example 23, 2-(4-Fluoro-2-isopropyl-6-(2-methoxypyridin-4-yl)phenyl)-N-((1-isopropyl-1H-pyrazol-3-yl)sulfonyl)acetamide, potassium salt], the IC50 is at most 5 µM.
`CC(C)c1cc(F)cc(-c2cccnc2)c1CC(=O)NS(=O)(=O)c1ccn(C(C)C)n1` [Example 24, 2-(4-Fluoro-2-isopropyl-6-(pyridin-3-yl)phenyl)-N-((1-isopropyl-1H-pyrazol-3-yl)sulfonyl)acetamide, potassium salt] gave an IC50 of at most 10 µM.
The same measure for `CC(C)c1cc(F)cc(-c2cccnc2)c1CC(=O)NS(=O)(=O)c1cc(C(C)(C)O)cs1` [Example 25, 2-(4-Fluoro-2-isopropyl-6-(pyridin-3-yl)phenyl)-N-((4-(2-hydroxypropan-2-yl)thiophen-2-yl)sulfonyl)acetamide]: at most 0.5 µM; for `COc1cc(-c2cc(F)cc(C(C)C)c2CC(=O)NS(=O)(=O)c2cc(C(C)(C)O)cs2)ccn1` [Example 26, 2-(4-Fluoro-2-isopropyl-6-(2-methoxypyridin-4-yl)phenyl)-N-((4-(2-hydroxypropan-2-yl)thiophen-2-yl)sulfonyl)acetamide]: at most 0.5 µM; for `CC(C)c1cc(F)cc(-c2ccncc2)c1CC(=O)NS(=O)(=O)c1cc(C(C)(C)O)cs1` [Example 27, 2-(4-Fluoro-2-isopropyl-6-(pyridin-4-yl)phenyl)-N-((4-(2-hydroxypropan-2-yl)thiophen-2-yl)sulfonyl)acetamide, potassium salt]: at most 0.5 µM.
The molecule `CCOC(=O)c1cc(S(=O)(=O)NC(=O)Cc2c(-c3ccnc(OC)c3)cc(F)cc2C(C)C)nn1C` [Example 28, Ethyl 3-(N-(2-(4-fluoro-2-isopropyl-6-(2-methoxypyridin-4-yl)phenyl)acetyl)sulfamoyl)-1-methyl-1H-pyrazole-5-carboxylate] displayed an IC50 of at most 5 µM.
The same measure for `COc1cc(-c2cc(F)cc(C(C)C)c2CC(=O)NS(=O)(=O)c2ccc3c(c2)C(C)(C)OC3=O)ccn1` [Example 29, N-((3,3-Dimethyl-1-oxo-1,3-dihydroisobenzofuran-5-yl)sulfonyl)-2-(4-fluoro-2-isopropyl-6-(2-methoxypyridin-4-yl)phenyl) acetamide]: at most 5 µM.
For `COc1cc(-c2cc(F)cc(C(C)C)c2CC(=O)NS(=O)(=O)c2cccc(C#N)c2)ccn1` [Example 30, N-((3-Cyanophenyl)sulfonyl)-2-(4-fluoro-2-isopropyl-6-(2-methoxypyridin-4-yl)phenyl)acetamide] the value was at most 5 µM; for `COc1cc(-c2cc(F)cc(C(C)C)c2CC(=O)NS(=O)(=O)c2ccc(CN(C)C)cc2)ccn1` [Example 31, N-((4-((Dimethylamino)methyl)phenyl)sulfonyl)-2-(4-fluoro-2-isopropyl-6-(2-methoxypyridin-4-yl)phenyl)acetamide, potassium salt], at most 5 µM.
For `COc1cc(-c2cc(F)cc(C(C)C)c2CC(=O)NS(=O)(=O)c2cccc(CC#N)c2)ccn1` [Example 32, N-((3-(Cyanomethyl)phenyl)sulfonyl)-2-(4-fluoro-2-isopropyl-6-(2-methoxypyridin-4-yl)phenyl)acetamide] the value was at most 1 µM; for `COc1cc(-c2cc(F)cc(C(C)C)c2CC(=O)NS(=O)(=O)c2ccc(C(C)(C)O)cc2C)ccn1` [Example 33, 2-(4-Fluoro-2-isopropyl-6-(2-methoxypyridin-4-yl)phenyl)-N-((4-(2-hydroxypropan-2-yl)-2-methylphenyl)sulfonyl)acetamide], at most 0.5 µM; for `COc1cc(-c2cc(F)cc(C(C)C)c2CC(=O)NS(=O)(=O)c2ccc(F)c(C#N)c2)ccn1` [Example 34, N-((3-Cyano-4-fluorophenyl)sulfonyl)-2-(4-fluoro-2-isopropyl-6-(2-methoxypyridin-4-yl)phenyl)acetamide], at most 10 µM.
With `COc1cc(-c2cc(F)cc(C(C)C)c2CC(=O)NS(=O)(=O)c2cc(C#N)ccc2C)ccn1` [Example 35, N-((5-Cyano-2-methylphenyl)sulfonyl)-2-(4-fluoro-2-isopropyl-6-(2-methoxypyridin-4-yl)phenyl)acetamide], the IC50 is at most 10 µM.

These data come from US12030879B2, “Sulfonyl acetamides as NLRP3 inhibitors” (Inflazome Limited, priority 2018, dated 2024).
